Read-outs that look alike come from different tables or passages of the source.
Molecular target: T1, Human M4 (Homo sapiens, UniProt P08173)
T1 construct: expressed in transfected cells; host or cells: CHO-K1 (ATCC), co-transfected with chimeric G protein Gqi5
T1 sequence (P08173 1-479): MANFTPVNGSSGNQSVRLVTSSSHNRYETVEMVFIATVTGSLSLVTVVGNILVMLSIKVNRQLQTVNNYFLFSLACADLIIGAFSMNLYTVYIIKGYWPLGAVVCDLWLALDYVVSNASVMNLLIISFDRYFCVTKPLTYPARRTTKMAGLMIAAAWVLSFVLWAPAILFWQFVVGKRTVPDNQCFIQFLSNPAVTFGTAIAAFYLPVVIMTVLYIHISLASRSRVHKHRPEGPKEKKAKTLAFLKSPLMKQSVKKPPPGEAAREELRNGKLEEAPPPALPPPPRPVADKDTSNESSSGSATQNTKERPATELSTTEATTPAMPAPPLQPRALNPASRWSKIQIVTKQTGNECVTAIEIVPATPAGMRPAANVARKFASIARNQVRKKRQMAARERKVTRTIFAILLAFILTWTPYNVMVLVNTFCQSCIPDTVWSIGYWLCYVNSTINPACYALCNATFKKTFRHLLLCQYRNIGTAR
Experiment: mAChR M4 cell-based functional assay (calcium flux, antagonism of EC80 acetylcholine response)
Conditions: for IC50: concentration-dependent decrease of the response elicited by an EC80 concentration of acetylcholine
Procedure, shortened: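 CHO-K1 cells stably expressing human M4 with chimeric Gqi5, Fluo-4 loaded; calcium flux read on FDSS. Compound (10-point, 1:3 series) added first, then EC20 acetylcholine at 143 s and EC80 at 268 s. IC50 from concentration-dependent decrease of EC80 response, four-parameter logistic fit.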

[1] = M4/Gqi5/CHO-K1 cells, % ACh maximum at 30 μM, read-out: Human M4 Emin (% ACh maximum at 30 μM)
[2] = CHO-K1, read-out: Human M4 Emin (% ACh maximum at 30 μM)

Row | remaining activity at 30 µM [1] [%] | IC50 (M4/Gqi5/CHO-K1 cells) [µM] | SMILES | remaining activity at 30 µM [2] [%]
1 | 5 | 0.44 | CN(C)C(=O)c1cc(F)c(F)c(-c2ccc(N[C@H]3C[C@@H]4CN(CC5CCOCC5)C[C@@H]4C3)nn2)c1 [Compound A9, 3,4-difluoro-N,N-dimethyl-5-(6-(((3aR,5s,6aS)-2-((tetrahydro-2H-pyran-4-yl)methyl)octahydrocyclopenta[c]pyrrol-5-yl)amino)pyridazin-3-yl)benzamide] | 
2 | 5 | 0.029 | [2H]C1([2H])CC(C([2H])([2H])N2C[C@H]3C[C@H](Nc4ccc(-c5cc(F)cc(C(=O)NC)c5)nn4)C[C@H]3C2)CC([2H])([2H])O1 [Compound A82, 3-fluoro-N-methyl-5-(6-(((3aR,5s,6aS)-2-((tetrahydro-2H-pyran-4-yl-2,2,6,6-d4)methyl-d2)octahydrocyclopenta[c]pyrrol-5-yl)amino)pyridazin-3-yl)benzamide] | 
3 | 4 | 0.04 | [2H]C1([2H])CC(C([2H])([2H])N2C[C@H]3C[C@H](Nc4ccc(-c5cccc(C(=O)NC)c5)nn4)C[C@H]3C2)CC([2H])([2H])O1 (single isomer, unassigned) [Compound A74] | 
4 | 4 | 0.0047 | [2H]C([2H])(C1CCOCC1)N1C[C@H]2C[C@H](Nc3ccc(-c4ccc(C(=O)NC)c(F)c4)nn3)C[C@H]2C1 [Compound A70, 2-fluoro-N-methyl-4-(6-(((3aR,5s,6aS)-2-((tetrahydro-2H-pyran-4-yl)methyl-d2)octahydrocyclopenta[c]pyrrol-5-yl)amino)pyridazin-3-yl)benzamide] | 
5 | 4 | 0.16 | O=C(Nc1cc(F)c(F)c(-c2ccc(N[C@H]3C[C@@H]4CN(CC5CCOCC5)C[C@@H]4C3)nn2)c1)C1CC(F)(F)C1 [Compound A14, N-(3,4-difluoro-5-(6-(((3aR,5s,6aS)-2-((tetrahydro-2H-pyran-4-yl)methyl)octahydrocyclopenta[c]pyrrol-5-yl)amino)pyridazin-3-yl)phenyl)-3,3-difluorocyclobutane-1-carboxamide] | 
6 | 4 | 0.074 | [2H]C([2H])(C1CCOCC1)N1C[C@H]2C[C@H](Nc3ccc(-c4ccccc4C(=O)NC)nn3)C[C@H]2C1 [Compound A48, N-methyl-2-(6-(((3aR,5s,6aS)-2-((tetrahydro-2H-pyran-4-yl)methyl-d2)octahydrocyclopenta[c]pyrrol-5-yl)amino)pyridazin-3-yl)benzamide] | 
7 | 4 | 0.025 | O=C(c1ccc(-c2ccc(N[C@H]3C[C@@H]4CN(CC5CCOCC5)C[C@@H]4C3)nn2)cc1)N1CCC(O)C1 (stereo partly drawn) [Compound A25, (3-hydroxypyrrolidin-1-yl)(4-(6-(((3aR,5s,6aS)-2-((tetrahydro-2H-pyran-4-yl)methyl)octahydrocyclopenta[c]pyrrol-5-yl)amino)pyridazin-3-yl)phenyl)methanone] | 
8 | 3 | 0.034 | CC(=O)Nc1cccc(-c2ccc(N[C@H]3C[C@@H]4CN(CC5CCOCC5)C[C@@H]4C3)nn2)c1 [Compound A29, N-(3-(6-(((3aR,5s,6aS)-2-((tetrahydro-2H-pyran-4-yl)methyl)octahydrocyclopenta[c]pyrrol-5-yl)amino)pyridazin-3-yl)phenyl)acetamide] | 
9 | 3 | 0.0039 | O=C(NC1CC1)c1ccc(-c2ccc(N[C@H]3C[C@@H]4CN(CC5CCOCC5)C[C@@H]4C3)nn2)cc1 [Compound A27, N-cyclopropyl-4-(6-(((3aR,5s,6aS)-2-((tetrahydro-2H-pyran-4-yl)methyl)octahydrocyclopenta[c]pyrrol-5-yl)amino)pyridazin-3-yl)benzamide] | 
10 | 4 | 0.082 | O=C(NC1CC(F)(F)C1)c1cc(F)c(F)c(-c2ccc(N[C@H]3C[C@@H]4CN(CC5CCOCC5)C[C@@H]4C3)nn2)c1 [Compound A19, N-(3,3-difluorocyclobutyl)-3,4-difluoro-5-(6-(((3aR,5s,6aS)-2-((tetrahydro-2H-pyran-4-yl)methyl)octahydrocyclopenta[c]pyrrol-5-yl)amino)pyridazin-3-yl)benzamide] | 
11 | 4 | 0.02 | [2H]C([2H])(C1CCOCC1)N1C[C@H]2C[C@H](Nc3ccc(-c4cccc(C(=O)NCC)c4)nn3)C[C@H]2C1 [Compound A46, N-ethyl-3-(6-(((3aR,5s,6aS)-2-((tetrahydro-2H-pyran-4-yl)methyl-d2)octahydrocyclopenta[c]pyrrol-5-yl)amino)pyridazin-3-yl)benzamide] | 
12 | 4 | 0.1 | O=C(c1cc(F)c(F)c(-c2ccc(N[C@H]3C[C@@H]4CN(CC5CCOCC5)C[C@@H]4C3)nn2)c1)N1CC(F)(F)C1 [Compound A20, (3,4-difluoro-5-(6-(((3aR,5s,6aS)-2-((tetrahydro-2H-pyran-4-yl)methyl)octahydrocyclopenta[c]pyrrol-5-yl)amino)pyridazin-3-yl)phenyl)(3,3-difluoroazetidin-1-yl)methanone] | 
13 | 4 | 0.2 | [2H]C([2H])([2H])NC(=O)c1ccccc1-c1ccc(N[C@H]2C[C@@H]3CN(C([2H])([2H])C4CCOCC4)C[C@@H]3C2)nn1 [Compound A53, N-(methyl-d3)-2-(6-(((3aR,5s,6aS)-2-((tetrahydro-2H-pyran-4-yl)methyl-d2)octahydrocyclopenta[c]pyrrol-5-yl)amino)pyridazin-3-yl)benzamide] | 
14 | 4 | 0.062 | CC(=O)Nc1ccc(-c2ccc(N[C@H]3C[C@@H]4CN(Cc5ccccc5F)C[C@@H]4C3)nn2)cc1 [Compound A1, N-(4-(6-(((3aR,5s,6aS)-2-(2-fluorobenzyl)octahydrocyclopenta[c]pyrrol-5-yl)amino)pyridazin-3-yl)phenyl)acetamide] | 
15 | 4 | 0.011 | [2H]C([2H])(C1CCOCC1)N1C[C@H]2C[C@H](Nc3ccc(-c4cc(F)c(C(N)=O)c(F)c4)nn3)C[C@H]2C1 [Compound A68, 2,6-difluoro-4-(6-(((3aR,5s,6aS)-2-((tetrahydro-2H-pyran-4-yl)methyl-d2)octahydrocyclopenta[c]pyrrol-5-yl)amino)pyridazin-3-yl)benzamide] | 
16 | 4 | 0.01 | [2H]C([2H])([2H])NC(=O)c1cccc(-c2ccc(N[C@H]3C[C@@H]4CN(CC5CCOCC5)C[C@@H]4C3)nn2)c1 (single isomer, unassigned) [Compound A47] | 
17 | 4 | 0.0011 | [2H]C([2H])(C1CCOCC1)N1C[C@H]2C[C@H](Nc3ccc(-c4ccc(C(=O)NC5CC5)cc4)nn3)C[C@H]2C1 [Compound A34, N-cyclopropyl-4-(6-(((3aR,5s,6aS)-2-((tetrahydro-2H-pyran-4-yl)methyl-d2)octahydrocyclopenta[c]pyrrol-5-yl)amino)pyridazin-3-yl)benzamide] | 
18 | 3 | 0.012 | [2H]C([2H])([2H])C(=O)Nc1cccc(-c2ccc(N[C@H]3C[C@@H]4CN(CC5CCOCC5)C[C@@H]4C3)nn2)c1 [Compound A61, N-(3-(6-(((3aR,5s,6aS)-2-((tetrahydro-2H-pyran-4-yl)methyl)octahydrocyclopenta[c]pyrrol-5-yl)amino)pyridazin-3-yl)phenyl)acetamide-2,2,2-d3] | 

Row | SMILES | remaining activity at 30 µM [1] [%] | IC50 (M4/Gqi5/CHO-K1 cells) [µM] | remaining activity at 30 µM [2] [%]
19 | O=C(NC12CC(C1)C2)c1cc(F)c(F)c(-c2ccc(N[C@H]3C[C@@H]4CN(CC5CCOCC5)C[C@@H]4C3)nn2)c1 [Compound A18, N-(Bicyclo[1.1.1]pentan-1-yl)-3,4-difluoro-5-(6-(((3aR,5s,6aS)-2-((tetrahydro-2H-pyran-4-yl)methyl)octahydrocyclopenta[c]pyrrol-5-yl)amino)pyridazin-3-yl)benzamide] |  | 0.027 | 3
20 | O=C(c1ccc(-c2ccc(N[C@H]3C[C@@H]4CN(CC5CCOCC5)C[C@@H]4C3)nn2)cc1)N1CCCC1 [Compound A21, Pyrrolidin-1-yl(4-(6-(((3aR,5s,6aS)-2-((tetrahydro-2H-pyran-4-yl)methyl)octahydrocyclopenta[c]pyrrol-5-yl)amino)pyridazin-3-yl)phenyl)methanone] |  | 0.0039 | 4
21 | CS(=O)(=O)CC(=O)Nc1cccc(-c2ccc(N[C@H]3C[C@@H]4CN(CC5CCOCC5)C[C@@H]4C3)nn2)c1 [Compound A17, 2-(Methylsulfonyl)-N-(3-(6-(((3aR,5s,6aS)-2-((tetrahydro-2H-pyran-4-yl)methyl)octahydrocyclopenta[c]pyrrol-5-yl)amino)pyridazin-3-yl)phenyl)acetamide] |  | 0.0028 | 3
